Patent publication US4001325A, “α-Chloroacetanilide selective herbicides” (Diamond Shamrock Corporation, priority 1973, dated 1977)

Tests used:
Prickly Sida = experiment: Field preemergence test, weed control; assay type: in vivo; settings: 3-4 weeks after planting
Description: (§1) Test plots of fertilized, light sandy soil containing 0.7% organic matter are sprayed uniformly with aqueous suspensions prepared from emulsifiable concentrates containing 12%, by weight, of the test chemicals diluted to provide dosage rates of the test compounds corresponding to 2.0, 1.0, 0.5, and 0.25 pound per acre (lb/A). The plots are then sown with seeds of the following crop plants: sweet corn, cotton (Coker 413) and soybeans, var. Davis. Seeds of the following weed plants are planted: redroot pigweed, prickly sida, common lambsquarter, goosegrass and giant foxtail.
(§2) Three to four weeks after planting, percent control (plant kill) of the test plants is estimated, from a rating of 0 which denotes no injury to the plant up to 100 which denotes complete destruction. The herbicidal action of the test compounds obtained on the weed species is as follows: […]

Giant Foxtail = experiment: Field preemergence test, weed control; assay type: in vivo; settings: 3-4 weeks after planting
Description: as §1, §2

Common Lambsquarter = experiment: Field preemergence test, weed control; assay type: in vivo; settings: 3-4 weeks after planting
Description: as §1, §2

Redroot Pigweed = experiment: Field preemergence test, weed control; assay type: in vivo; settings: 3-4 weeks after planting
Description: as §1, §2

Goosegrass = experiment: Field preemergence test, weed control; assay type: in vivo; settings: 3-4 weeks after planting
Description: as §1, §2

corn [1] = experiment: Example 17 damage to corn crop; assay type: in vivo; settings: 2 lb/A
Description: (§3) This example illustrates the selective herbicidal activity of two of the presently preferred compounds of this invention against various weed species in a corn crop.
(§4) Plots of light sandy soil, cleared of all weeds, are uniformly treated with aqueous dispersions prepared from an emulsifiable concentrate containing 2- 4 pounds of active ingredient per gallon. Diluted aqueous dispersions are applied as surface treatments at 2.0, 1.0, 0.5, and 0.25 pound of active ingredient per acre (lb/A).
(§5) The treated test plots are sown to corn and with seeds of the following weed species:
(§6) Three to four weeks after planting, the degree of damage to both the corn stands and the weed plants is assessed from a rating of 0% (no injury) to 100% (complete destruction).

Sorghum = experiment: Example 18 phytotoxic effects on crop stands in different soils; assay type: in vivo, grain sorghum
Description: (§7) To further illustrate the herbicidal activity of compounds of this invention in different types of soil as would be encountered in different crop growing localities, a preemergence herbicide test is conducted generally as outlined previously herein. Two light sandy soils are employed containing 0.7% and 1.8% organic matter (O.M.), respectively, along with two loam-type, heavier soils containing either 2.0% or 5-5.5% organic matter (O.M.).
(§8) The test plots are all sprayed uniformly with formulations of the test compounds providing 2.0, 1.0, 0.5, and 0.25 pound of active chemical per acre (lb/A).
(§9) Prior to treatment, the soil plots are sown to field corn, soybean, and grain sorghum crops and seeds of barnyard-grass and yellow foxtail.
(§10) Three weeks after planting, the percent control of plant growth is rated from 0% (no injury) to 100% (total destruction). The results obtained are as follows:
(§11) Phytotoxic effects on the crop stands are similarly rated with the following results: […]

Barnyardgrass = experiment: Example 17 selective herbicidal activity in corn crop, weed kill; assay type: in vivo, Echinochloa crusgalli; settings: Echinochloa crus-galli, 3-4 weeks after planting
Description: as §3, §4, §5, §6

Morningglory = experiment: as above; assay type: in vivo, Ipomoea sp.; settings: Ipomoea, 3-4 weeks after planting
Description: as §3, §4, §5, §6

Soybeans [2] = experiment: Example 18 phytotoxic effects on crop stands in different soils; assay type: in vivo, soybean
Description: as §7, §8, §9, §10, §11

Soybeans [3] = experiment: Field preemergence test, phytotoxic effects on crop; assay type: in vivo, var. Davis
Description: as §1
Three to four weeks after planting, percent control (plant kill) of the test plants is estimated, from a rating of 0 which denotes no injury to the plant up to 100 which denotes complete destruction. The herbicidal action of the test compounds obtained on the weed species is as follows:
Phytotoxic effects observed on the crop species is estimated with results as follows: […]

Yellow Foxtail = experiment: Example 17 selective herbicidal activity in corn crop, weed kill; assay type: in vivo, Setaria lutescens; settings: Setaria, 3-4 weeks after planting
Description: as §3, §4, §5, §6

Corn [4] = experiment: Example 18 phytotoxic effects on crop stands in different soils; assay type: in vivo, field corn
Description: as §7, §8, §9, §10, §11

[5] = 0.5 lb/A, Heavy Soil 5-5.5% O.M.
[6] = 0.5 lb/A, Medium Soil 2.0% O.M.
[7] = 1.0 lb/A, Heavy Soil 5-5.5% O.M.
[8] = 1.0 lb/A, Medium Soil 2.0% O.M.
[9] = 2.0 lb/A, Heavy Soil 5-5.5% O.M.
[10] = 2.0 lb/A, Medium Soil 2.0% O.M.

C#CCN(C(=O)CCl)c1c(CC)cccc1CC [Example 9, 2-Chloro-2',6'-diethyl-N-propargylacetanilide]
% Weed Control, Prickly Sida (Prickly Sida; 0.25 lb/A): 0%
% Weed Control, Prickly Sida (Prickly Sida; 0.5 lb/A): 80%
% Weed Control, Prickly Sida (Prickly Sida; 1.0 lb/A): 42%
% Weed Control, Prickly Sida (Prickly Sida; 2.0 lb/A): 93%
% Weed Control, Giant Foxtail (Giant Foxtail; 0.25 lb/A): 42%
% Weed Control, Giant Foxtail (Giant Foxtail; 0.5 lb/A): 85%
% Weed Control, Giant Foxtail (Giant Foxtail; 1.0 lb/A): 97%
% Weed Control, Giant Foxtail (Giant Foxtail; 2.0 lb/A): 100%
% Weed Control, Common Lambsquarter (Common Lambsquarter; 0.25 lb/A): 95%
% Weed Control, Common Lambsquarter (Common Lambsquarter; 0.5 lb/A): 100%
% Weed Control, Common Lambsquarter (Common Lambsquarter; 1.0 lb/A): 100%
% Weed Control, Common Lambsquarter (Common Lambsquarter; 2.0 lb/A): 100%
% Weed Control, Redroot Pigweed (Redroot Pigweed; 0.25 lb/A): 75%
% Weed Control, Redroot Pigweed (Redroot Pigweed; 0.5 lb/A): 93%
% Weed Control, Redroot Pigweed (Redroot Pigweed; 1.0 lb/A): 100%
% Weed Control, Redroot Pigweed (Redroot Pigweed; 2.0 lb/A): 100%
% Weed Control, Goosegrass (Goosegrass; 0.25 lb/A): 94%
% Weed Control, Goosegrass (Goosegrass; 0.5 lb/A): 98%
% Weed Control, Goosegrass (Goosegrass; 1.0 lb/A): 100%
% Weed Control, Goosegrass (Goosegrass; 2.0 lb/A): 100%
phytotoxic effects on corn (corn [1]): no phytotoxic effects
% Phytotoxicity, Sorghum (Sorghum; [5]): 35%
% Phytotoxicity, Sorghum (Sorghum; [6]): 40%
% Phytotoxicity, Sorghum (Sorghum; 0.5 lb/A, Sand 0.7% O.M.): 0%
% Phytotoxicity, Sorghum (Sorghum; 0.5 lb/A, Sand 1.8% O.M.): 10%
% Phytotoxicity, Sorghum (Sorghum; [7]): 75%
% Phytotoxicity, Sorghum (Sorghum; [8]): 55%
% Phytotoxicity, Sorghum (Sorghum; 1.0 lb/A, Sand 0.7% O.M.): 10%
% Phytotoxicity, Sorghum (Sorghum; 1.0 lb/A, Sand 1.8% O.M.): 30%
% Phytotoxicity, Sorghum (Sorghum; [9]): 99%
% Phytotoxicity, Sorghum (Sorghum; [10]): 95%
% Phytotoxicity, Sorghum (Sorghum; 2.0 lb/A, Sand 0.7% O.M.): 30%
% Phytotoxicity, Sorghum (Sorghum; 2.0 lb/A, Sand 1.8% O.M.): 70%
mortality at 280.212 g/ha (Barnyardgrass; 0.25 lb/A): 68%
mortality at 560.425 g/ha (Barnyardgrass; 0.5 lb/A): 98%
mortality at 1120.85 g/ha (Barnyardgrass; 1.0 lb/A): 98%
mortality at 2241.7 g/ha (Barnyardgrass; 2.0 lb/A): 100%
mortality at 280.212 g/ha (Morningglory; 0.25 lb/A): 0%
mortality at 560.425 g/ha (Morningglory; 0.5 lb/A): 0%
mortality at 1120.85 g/ha (Morningglory; 1.0 lb/A): 0%
mortality at 2241.7 g/ha (Morningglory; 2.0 lb/A): 3%
% Phytotoxicity, Soybeans (Soybeans [2]; [5]): 0%
% Phytotoxicity, Soybeans (Soybeans [2]; [6]): 0%
% Phytotoxicity, Soybeans (Soybeans [2]; 0.5 lb/A, Sand 0.7% O.M.): 0%
% Phytotoxicity, Soybeans (Soybeans [2]; 0.5 lb/A, Sand 1.8% O.M.): 0%
% Phytotoxicity, Soybeans (Soybeans [2]; [7]): 0%
% Phytotoxicity, Soybeans (Soybeans [2]; [8]): 0%
% Phytotoxicity, Soybeans (Soybeans [2]; 1.0 lb/A, Sand 0.7% O.M.): 0%
% Phytotoxicity, Soybeans (Soybeans [2]; 1.0 lb/A, Sand 1.8% O.M.): 0%
% Phytotoxicity, Soybeans (Soybeans [2]; [9]): 0%
% Phytotoxicity, Soybeans (Soybeans [2]; [10]): 0%
% Phytotoxicity, Soybeans (Soybeans [2]; 2.0 lb/A, Sand 0.7% O.M.): 0%
% Phytotoxicity, Soybeans (Soybeans [2]; 2.0 lb/A, Sand 1.8% O.M.): 0%
% Crop Kill, Soybeans (Soybeans [3]; 1.0 lb/A): 0%
% Crop Kill, Soybeans (Soybeans [3]; 2.0 lb/A): 0%
mortality at 280.212 g/ha (Yellow Foxtail; 0.25 lb/A): 80%
mortality at 560.425 g/ha (Yellow Foxtail; 0.5 lb/A): 95%
mortality at 1120.85 g/ha (Yellow Foxtail; 1.0 lb/A): 100%
mortality at 2241.7 g/ha (Yellow Foxtail; 2.0 lb/A): 100%
% Phytotoxicity, Corn (Corn [4]; [5]): 0%
% Phytotoxicity, Corn (Corn [4]; [6]): 0%
% Phytotoxicity, Corn (Corn [4]; 0.5 lb/A, Sand 0.7% O.M.): 0%
% Phytotoxicity, Corn (Corn [4]; 0.5 lb/A, Sand 1.8% O.M.): 0%
% Phytotoxicity, Corn (Corn [4]; [7]): 0%
% Phytotoxicity, Corn (Corn [4]; [8]): 0%
% Phytotoxicity, Corn (Corn [4]; 1.0 lb/A, Sand 0.7% O.M.): 0%
% Phytotoxicity, Corn (Corn [4]; 1.0 lb/A, Sand 1.8% O.M.): 0%
% Phytotoxicity, Corn (Corn [4]; [9]): 10%
% Phytotoxicity, Corn (Corn [4]; [10]): 10%
% Phytotoxicity, Corn (Corn [4]; 2.0 lb/A, Sand 0.7% O.M.): 0%
% Phytotoxicity, Corn (Corn [4]; 2.0 lb/A, Sand 1.8% O.M.): 0%
